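Five compound concentrations were applied to cells in 96-well plates for 48 hours; endpoints were derived by simple linear interpolation of the resulting dose-response curve. TGI: total growth inhibition.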 Bounds are passed on as bounds.

Test systems include ACHN renal; HCT-15 colon; NCI-H226 lung; NCI-H23 lung; NCI-H460 lung; OVCAR-4 ovarian; SF-295 CNS; SF-539 CNS; SR leukemia; UO-31 renal.
Holding throughout (test): NCI anticancer screen, dose series, 48 h

With `O=[N+]([O-])c1ccc(Cl)c(C=NC23CC4CC(CC(C4)C2)C3)c1`, the TGI in the assay on ACHN renal, in the assay with HCT-15 colon, in the assay with NCI-H226 lung, in the assay on NCI-H23 lung, in the assay with NCI-H460 lung and in the assay with OVCAR-4 ovarian was over 10 µM throughout. In addition, the TGI in the assay on SF-295 CNS was over 10 µM; in the assay with SF-539 CNS it was 9.9 µM; with SR leukemia, over 10 µM; in the assay with UO-31 renal it was over 10 µM.

Consider `NS(=O)(=O)c1nn2c(Br)c(-c3ccccc3)nc2s1`, for which the TGI in the assay on ACHN renal came to 15.2 µM; with HCT-15 colon, 11.6 µM; with NCI-H226 lung it was 4.6 µM; in the assay with NCI-H23 lung, 11.1 µM; in the assay with NCI-H460 lung, 19.3 µM; in the assay with OVCAR-4 ovarian it was 24.4 µM. The TGI in the assay with SF-295 CNS is 22.6 µM; in the assay with SF-539 CNS, 3.95 µM; in the assay with SR leukemia it was over 33.8 µM; in the assay with UO-31 renal, 15.5 µM.

For `Cc1cccc(-c2nc3ccc([N+](=O)[O-])cc3c(=O)o2)c1`, the TGI in the assay on ACHN renal, with HCT-15 colon, with NCI-H226 lung, in the assay on NCI-H23 lung, with NCI-H460 lung and with OVCAR-4 ovarian was over 100 µM throughout. For the same compound, the TGI in the assay on SF-295 CNS, with SF-539 CNS, with SR leukemia and with UO-31 renal was over 100 µM throughout.

As to `CCc1nc(N)nc(N)c1-c1ccc2nn(-c3ccccc3)[n+]([O-])c2c1`, the TGI was determined as 17.3 µM in the assay on ACHN renal; 18.8 µM with HCT-15 colon; 48.7 µM in the assay with NCI-H226 lung; 18.2 µM in the assay on NCI-H23 lung; 14.8 µM in the assay with NCI-H460 lung; 56.6 µM in the assay with OVCAR-4 ovarian. The TGI in the assay with SF-295 CNS was found to be 63.5 µM; in the assay with SF-539 CNS, 18.2 µM; in the assay on SR leukemia, 34.1 µM; with UO-31 renal, 35.2 µM.

For the compound `CC(=O)n1nc(-c2ccccc2)n(/N=C/c2ccc([N+](=O)[O-])cc2)c1=O`, the TGI with ACHN renal, in the assay with HCT-15 colon, in the assay on NCI-H226 lung, in the assay with NCI-H23 lung, with NCI-H460 lung and in the assay on OVCAR-4 ovarian was over 100 µM in each case. In addition, the TGI in the assay on SF-295 CNS, in the assay on SF-539 CNS, in the assay with SR leukemia and in the assay with UO-31 renal was over 100 µM in each case.

In the case of `CNc1ccc(OC)cc1S(=O)(=O)c1ccccc1[N+](=O)[O-]`, the TGI in the assay on ACHN renal, in the assay with HCT-15 colon, with NCI-H226 lung, in the assay on NCI-H23 lung, in the assay with NCI-H460 lung and in the assay on OVCAR-4 ovarian was over 100 µM throughout. Further, the TGI in the assay with SF-295 CNS, in the assay with SF-539 CNS, in the assay with SR leukemia and in the assay with UO-31 renal was over 100 µM each time.

Turning to `CC(=O)NC1C(OCc2ccccc2)OC(CO)C(O)C1OC(C)C(=O)NC(C)C(=O)NC(CCC(=O)NCCCNc1c2ccccc2nc2cccc([N+](=O)[O-])c12)C(N)=O` (stereo not given), the TGI was 6.9 µM in the assay on ACHN renal; 7.3 µM in the assay with HCT-15 colon; 11.2 µM with NCI-H226 lung; 11.8 µM in the assay on NCI-H23 lung; 1.96 µM in the assay on NCI-H460 lung; over 100 µM in the assay on OVCAR-4 ovarian. For the same compound, the TGI is 35.2 µM in the assay with SF-295 CNS, 19.3 µM in the assay with SF-539 CNS, over 100 µM in the assay with SR leukemia and 8.3 µM with UO-31 renal.

Take `CCCCCCCCCCCCCCCCCCNc1ccn(C2OC(COP(=O)(O)OCC3OC(n4cc(C)c(=O)[nH]c4=O)CC3O)C(O)C2O)c(=O)n1` (stereo not given): the TGI in the assay on ACHN renal was found to be 44.4 µM; in the assay with HCT-15 colon, 33.5 µM; in the assay with NCI-H226 lung, 42.1 µM; with NCI-H23 lung, 31 µM; in the assay with NCI-H460 lung, 36.3 µM; in the assay with OVCAR-4 ovarian, 39.4 µM. The TGI is 33.1 µM in the assay with SF-295 CNS, 31.5 µM with SF-539 CNS, 28.2 µM with SR leukemia and 33.9 µM in the assay on UO-31 renal.

Turning to `NC(=O)C(N)Cc1ccc(O)cn1` (stereo not given), the TGI with ACHN renal, in the assay on HCT-15 colon, in the assay with NCI-H226 lung, in the assay on NCI-H23 lung, in the assay on NCI-H460 lung and with OVCAR-4 ovarian was over 100 µM each time. Besides, the TGI with SF-295 CNS, in the assay on SF-539 CNS, with SR leukemia and with UO-31 renal was over 100 µM in each case.

On to `O=Cc1ccc2c(c1)CC1(C2)Cc2ccc3c(c2C1)CCC3` (stereo not given), for which the TGI in the assay on ACHN renal was over 100 µM; in the assay with HCT-15 colon, 34.4 µM; in the assay with NCI-H226 lung it was 37.8 µM; in the assay on NCI-H23 lung, 33.6 µM; in the assay with NCI-H460 lung, 38.7 µM; in the assay on OVCAR-4 ovarian, 16.9 µM. Also, the TGI came out at 19.5 µM with SF-295 CNS, 26.1 µM in the assay on SF-539 CNS, 18.3 µM in the assay on SR leukemia and 25 µM with UO-31 renal.

As for `C=C1C[C@@H]2O[C@H]3[C@H]4[C@@H](C[C@@H](C)[C@@H](OC(C)=O)[C@H]42)[C@@H](C)CO[C@@]3(C)[C@H](OC(C)=O)C[C@H]1O`, the TGI with ACHN renal, in the assay with HCT-15 colon, in the assay on NCI-H226 lung, in the assay on NCI-H23 lung, with NCI-H460 lung and with OVCAR-4 ovarian was over 100 µM in each case. In addition, the TGI in the assay with SF-295 CNS, with SF-539 CNS, with SR leukemia and in the assay on UO-31 renal was over 100 µM each time.

Regarding `COCCOCc1nc(C#N)c(N)o1`, the TGI in the assay with ACHN renal, in the assay on HCT-15 colon, in the assay with NCI-H226 lung, in the assay on NCI-H23 lung, in the assay with NCI-H460 lung and with OVCAR-4 ovarian was over 100 µM each time. In addition, the TGI in the assay on SF-295 CNS, in the assay on SF-539 CNS, in the assay on SR leukemia and in the assay on UO-31 renal was over 100 µM each time.

On to `O=[N+]([O-])c1cc2oc(COc3ccccc3)nc2cc1Cl`, for which the TGI was over 100 µM in the assay with ACHN renal; 43.3 µM with HCT-15 colon; 51.3 µM with NCI-H226 lung; 40.8 µM in the assay with NCI-H23 lung; 53.6 µM in the assay with NCI-H460 lung; over 100 µM in the assay with OVCAR-4 ovarian. Moreover, the TGI was 38.8 µM in the assay on SF-295 CNS, 45.8 µM in the assay with SF-539 CNS, over 100 µM in the assay with SR leukemia and 66 µM with UO-31 renal.

Regarding `O/N=C1/COC(C(F)(F)F)(C(F)(F)F)C1`, the TGI with ACHN renal, in the assay with HCT-15 colon, in the assay with NCI-H226 lung, with NCI-H23 lung, with NCI-H460 lung and with OVCAR-4 ovarian was over 100 µM each time. For the same compound, the TGI in the assay with SF-295 CNS, in the assay on SF-539 CNS, with SR leukemia and in the assay with UO-31 renal was over 100 µM each time.

Take `CC(C)(Cc1ccccc1)NC1=NCCO1`: the TGI in the assay on ACHN renal, with HCT-15 colon, with NCI-H226 lung, with NCI-H23 lung, with NCI-H460 lung and in the assay on OVCAR-4 ovarian was over 100 µM in each case. Moreover, the TGI in the assay on SF-295 CNS, in the assay on SF-539 CNS, with SR leukemia and in the assay with UO-31 renal was over 100 µM in each case.

For `NNC(N)Nc1ccccc1` (stereo not given), the TGI in the assay with ACHN renal, in the assay with HCT-15 colon, with NCI-H226 lung, in the assay with NCI-H23 lung, in the assay with NCI-H460 lung and with OVCAR-4 ovarian was over 100 µM in each case. For the same compound, the TGI in the assay with SF-295 CNS, in the assay with SF-539 CNS, with SR leukemia and in the assay with UO-31 renal was over 100 µM in each case.

With `Nc1nc(Cl)c(N)c(NC23CC4CC(CC(C4)C2)C3)n1`, the TGI in the assay on ACHN renal was determined as 4.69 µM; with HCT-15 colon, 13.3 µM; in the assay on NCI-H226 lung, 4.22 µM; in the assay with NCI-H23 lung, 8.43 µM; with NCI-H460 lung, 17.7 µM; in the assay on OVCAR-4 ovarian, 4.21 µM. In addition, the TGI was 11.3 µM in the assay on SF-295 CNS, 3.72 µM in the assay on SF-539 CNS, over 22.2 µM in the assay on SR leukemia and 3.55 µM with UO-31 renal.

`C[C@]12CC[C@H](O)CC1=CC[C@@H]1[C@@H]2CC[C@]2(C)C(=O)[C@@H](N3CCOCC3)C[C@@H]12`: the TGI in the assay with ACHN renal, with HCT-15 colon, with NCI-H226 lung, in the assay on NCI-H23 lung, with NCI-H460 lung and with OVCAR-4 ovarian was over 100 µM in each case. The TGI in the assay on SF-295 CNS, with SF-539 CNS, with SR leukemia and with UO-31 renal was over 100 µM throughout.

Take `Oc1ccc2ccccc2c1/C=C/c1ccc2c(Br)cc(Br)c(O)c2n1`: the TGI was found to be 18.1 µM with ACHN renal; 17.5 µM with HCT-15 colon; 20.3 µM in the assay on NCI-H226 lung; 24.7 µM with NCI-H23 lung; 16.2 µM in the assay with NCI-H460 lung; 33.4 µM in the assay on OVCAR-4 ovarian. The TGI is 18.5 µM with SF-295 CNS, 13.6 µM in the assay on SF-539 CNS, over 40.4 µM in the assay with SR leukemia and 17.1 µM in the assay on UO-31 renal.

In the case of `CCOC(=O)C1=C(C)N(C)C23OC4(C(=O)OC)CC2c2ccccc2C1N3C4=O` (stereo not given), the TGI with ACHN renal, in the assay with HCT-15 colon, with NCI-H226 lung, in the assay with NCI-H23 lung, in the assay on NCI-H460 lung and in the assay with OVCAR-4 ovarian was over 100 µM throughout. Further, the TGI with SF-295 CNS, in the assay on SF-539 CNS, with SR leukemia and in the assay with UO-31 renal was over 100 µM in each case.

Regarding `COc1ccc(C2CC(=O)CC(c3ccc(OC)cc3)C23C(=O)NC(=O)NC3=O)cc1` (stereo not given), the TGI in the assay with ACHN renal was 78.1 µM; in the assay on HCT-15 colon it was over 100 µM; in the assay on NCI-H226 lung, over 100 µM; with NCI-H23 lung it was 64.7 µM; in the assay on NCI-H460 lung, over 100 µM; with OVCAR-4 ovarian, over 100 µM. The TGI with SF-295 CNS, in the assay on SF-539 CNS, in the assay on SR leukemia and in the assay on UO-31 renal was over 100 µM each time.
